Reference: PubChem BioAssay AID330 (DTP/NCI, 2004)
Values joined by “and” are separate entries in the source; they are usually repeats but may differ in a detail not shown here. Identical values can stand only once. Toxic doses and inconclusive results are not listed. How the source made its calls: active means survival T/C of 150% or more; inactive means T/C below 125% in these data.

System: P388 leukemia ip, CD2F1 mice, survival T/C
Assay: NCI In Vivo Anticancer Drug Screen. Data for tumor model P388 Leukemia (intraperitoneal) in CD2F1 (CDF1) mice
Details: endpoint: median survival time, higher = longer survival
In short: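 Mice carrying the transplanted tumor received test compound or vehicle. Survival was recorded in each group, and the value is the treated-group measurement divided by that of the vehicle-treated control group.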

[1] = dose: 60.0 mg/kg/injection, schedule: Q01DX005 (ip), vehicle: Klucel (hydroxypropylcellulose) (HPC)
[2] = dose: 50.0 mg/kg/injection, schedule: Q01DX005 (ip), vehicle: saline with Tween-80
[3] = dose: 100.0 mg/kg/injection, schedule: Q01DX005 (ip), vehicle: saline with Tween-80
[4] = dose: 200.0 mg/kg/injection, schedule: Q01DX005 (ip), vehicle: saline with Tween-80
[5] = dose: 60.0 mg/kg/injection, schedule: Q01DX005 (ip), vehicle: saline
[6] = dose: 120.0 mg/kg/injection, schedule: Q01DX005 (ip), vehicle: saline
[7] = dose: 50.0 mg/kg/injection, schedule: Q01DX009 (ip), vehicle: Klucel (hydroxypropylcellulose) (HPC)
[8] = dose: 100.0 mg/kg/injection, schedule: Q01DX009 (ip), vehicle: Klucel (hydroxypropylcellulose) (HPC)
[9] = dose: 200.0 mg/kg/injection, schedule: Q01DX009 (ip), vehicle: Klucel (hydroxypropylcellulose) (HPC)
[10] = dose: 100.0 mg/kg/injection, schedule: Q04DX003 (ip), vehicle: saline with Tween-80
[11] = dose: 200.0 mg/kg/injection, schedule: Q04DX003 (ip), vehicle: saline with Tween-80
[12] = dose: 400.0 mg/kg/injection, schedule: Q04DX003 (ip), vehicle: saline with Tween-80
[13] = dose: 100.0 mg/kg/injection, schedule: Q01DX001 (ip), vehicle: saline with Tween-80
[14] = dose: 50.0 mg/kg/injection, schedule: Q01DX009 (ip), vehicle: saline
[15] = dose: 100.0 mg/kg/injection, schedule: Q01DX009 (ip), vehicle: saline
[16] = dose: 50.0 mg/kg/injection, schedule: Q01DX009 (ip), vehicle: saline with Tween-80
[17] = dose: 100.0 mg/kg/injection, schedule: Q01DX009 (ip), vehicle: saline with Tween-80
[18] = dose: 200.0 mg/kg/injection, schedule: Q01DX009 (ip), vehicle: saline with Tween-80
[19] = dose: 100.0 mg/kg/injection, schedule: Q04DX002 (ip), vehicle: saline with Tween-80
[20] = dose: 200.0 mg/kg/injection, schedule: Q04DX002 (ip), vehicle: saline with Tween-80
[21] = dose: 400.0 mg/kg/injection, schedule: Q04DX002 (ip), vehicle: saline with Tween-80

Measured: T/C

Cc1cc([N+](=O)[O-])c(S(N)(=O)=O)c([N+](=O)[O-])c1
inactive: dose: 3.13 mg/kg/injection, schedule: Q01DX009 (ip), vehicle: water 96 % of control | dose: 6.25 mg/kg/injection, schedule: Q01DX009 (ip), vehicle: water 96 % of control | dose: 12.5 mg/kg/injection, schedule: Q01DX009 (ip), vehicle: water 99 % of control | dose: 25.0 mg/kg/injection, schedule: Q01DX009 (ip), vehicle: water 97 % of control | dose: 50.0 mg/kg/injection, schedule: Q01DX009 (ip), vehicle: water 98 % of control

O=C1Nc2ccccc2C(=O)C1=Ic1ccccc1
inactive: dose: 15.0 mg/kg/injection, schedule: Q01DX005 (ip), vehicle: Klucel (hydroxypropylcellulose) (HPC) 101 % of control | dose: 30.0 mg/kg/injection, schedule: Q01DX005 (ip), vehicle: Klucel (hydroxypropylcellulose) (HPC) 104 % of control | dose: 50.0 mg/kg/injection, schedule: Q01DX005 (ip), vehicle: Klucel (hydroxypropylcellulose) (HPC) 94 % of control | [1] 104 % of control and 88 % of control | dose: 100.0 mg/kg/injection, schedule: Q01DX005 (ip), vehicle: Klucel (hydroxypropylcellulose) (HPC) 91 % of control

CC1=CC2(C)C3C=C(C)C(C2C(=O)C1=O)C(C)(O)C3=O (stereo not drawn)
inactive: [2] 97 % of control | [3] 106 % of control | [4] 106 % of control

O=P1(O)OC[C@H]2CCC[C@@H]2O1
inactive: [5] 106 % of control | [6] 97 % of control

CC(=O)Nc1c(Br)cc(C)cc1Br
inactive: [7] 94 % of control | [8] 102 % of control | [9] 100 % of control

CCOC(=O)c1cn(C)c2c1C(O)=C(C(=O)OC)CC(=O)N2
inactive: [10] 95 % of control | [11] 100 % of control | [12] 117 % of control

C[C@@]12C[C@@H](Br)[C@H](Br)C[C@]1(C)O2
inactive: [2] 104 % of control | [3] 106 % of control | [4] 101 % of control

Cc1ccc2c(c1)sc1n[nH]c(=O)n12
inactive: [7] 100 % of control | [8] 105 % of control

CCOc1c(N2CCOCC2)c(=O)c1=O
inactive: [13] 100 % of control | dose: 200.0 mg/kg/injection, schedule: Q01DX001 (ip), vehicle: saline with Tween-80 100 % of control | dose: 400.0 mg/kg/injection, schedule: Q01DX001 (ip), vehicle: saline with Tween-80 90 % of control

CN1C(=O)Cc2ccccc2C1=O
inactive: dose: 12.5 mg/kg/injection, schedule: Q01DX009 (ip), vehicle: saline 103 % of control | dose: 25.0 mg/kg/injection, schedule: Q01DX009 (ip), vehicle: saline 101 % of control | [14] 119 % of control | [15] 103 % of control

COC1c2ccccc2C=CN1C#N (stereo not drawn)
inactive: dose: 50.0 mg/kg/injection, schedule: Q01DX005 (ip), vehicle: distilled water + Tween-80 + alcohol 105 % of control | dose: 100.0 mg/kg/injection, schedule: Q01DX005 (ip), vehicle: distilled water + Tween-80 + alcohol 107 % of control

C/C(=N/N(C)C)c1ccncc1
inactive: [7] 104 % of control | [8] 107 % of control | [9] 113 % of control

CCOC(=O)NC(=O)CCC(=O)Nc1ccc2ccccc2c1
inactive: [10] 97 % of control | [11] 95 % of control | [12] 96 % of control

COC(=O)C1(C)OS(=O)(=O)c2ccccc21 (stereo not drawn)
inactive: [16] 101 % of control | [17] 101 % of control | [18] 104 % of control

COc1ccc(C2c3cc4c(cc3OC(C)(O)C2C)OCO4)cc1 (stereo not drawn)
inactive: [1] 95 % of control | dose: 120.0 mg/kg/injection, schedule: Q01DX005 (ip), vehicle: Klucel (hydroxypropylcellulose) (HPC) 98 % of control | dose: 240.0 mg/kg/injection, schedule: Q01DX005 (ip), vehicle: Klucel (hydroxypropylcellulose) (HPC) 93 % of control

N#CC(C(O)c1ccccc1)N1CCOCC1 (stereo not drawn)
inactive: dose: 50.0 mg/kg/injection, schedule: Q01DX009 (ip), vehicle: suspension in saline 102 % of control | dose: 100.0 mg/kg/injection, schedule: Q01DX009 (ip), vehicle: suspension in saline 109 % of control | dose: 200.0 mg/kg/injection, schedule: Q01DX009 (ip), vehicle: suspension in saline 94 % of control

CS(=O)CC(=N\O)/C(CS(C)=O)=N\O (stereo not drawn)
inactive: [5] 104 % of control | [6] 108 % of control | dose: 240.0 mg/kg/injection, schedule: Q01DX005 (ip), vehicle: saline 103 % of control

Cn1cnc2c(NCCO)ncnc21
inactive: [2] 118 % of control | [3] 100 % of control | [4] 103 % of control

CCCCC(CC)COC(OCC(CC)CCCC)C(OCC(CC)CCCC)OCC(CC)CCCC (stereo not drawn)
inactive: [10] 100 % of control | [11] 100 % of control | [12] 100 % of control

CC(=O)N(O)c1ccccc1-c1ccccc1
inactive: [16] 103 % of control | [17] 99 % of control | [18] 97 % of control

Cc1ccc2c(c1)C(=O)C(CN1CCN(C)CC1)CO2 (stereo not drawn)
inactive: [14] 106 % of control | [15] 109 % of control | dose: 200.0 mg/kg/injection, schedule: Q01DX009 (ip), vehicle: saline 99 % of control

CS(=O)CCC(N)P(=O)(O)O (stereo not drawn)
inactive: dose: 50.0 mg/kg/injection, schedule: Q01DX005 (ip), vehicle: saline 92 % of control | dose: 100.0 mg/kg/injection, schedule: Q01DX005 (ip), vehicle: saline 99 % of control | dose: 200.0 mg/kg/injection, schedule: Q01DX005 (ip), vehicle: saline 99 % of control

O=C1C2=C(OCCO2)C(=O)C2=C1OCCO2
inactive: [19] 99 % of control | [20] 111 % of control | [21] 106 % of control

C=CCN(C#N)CC=C
inactive: [14] 96 % of control

COc1ccc(C(=O)/C=C/c2cc3c(cc2OCc2ccccc2)OCO3)c(OCc2ccccc2)c1
inactive: dose: 75.0 mg/kg/injection, schedule: Q04DX003 (ip), vehicle: Klucel (hydroxypropylcellulose) (HPC) 99 % of control | dose: 150.0 mg/kg/injection, schedule: Q04DX003 (ip), vehicle: Klucel (hydroxypropylcellulose) (HPC) 94 % of control | dose: 300.0 mg/kg/injection, schedule: Q04DX003 (ip), vehicle: Klucel (hydroxypropylcellulose) (HPC) 90 % of control

CCCCOP(O)(=S)OCCCC.[Y]
inactive: dose: 25.0 mg/kg/injection, schedule: Q01DX009 (ip), vehicle: saline + alcohol 98 % of control | dose: 50.0 mg/kg/injection, schedule: Q01DX009 (ip), vehicle: saline + alcohol 99 % of control | dose: 100.0 mg/kg/injection, schedule: Q01DX009 (ip), vehicle: saline + alcohol 98 % of control | [19] 102 % of control | dose: 200.0 mg/kg/injection, schedule: Q01DX009 (ip), vehicle: saline + alcohol 91 % of control | [20] 96 % of control | [21] 96 % of control

CC1=NNB(O)c2sccc21
inactive: [16] 90 % of control | [17] 100 % of control | [18] 91 % of control

NC(N)=NC(N)=Nc1cc2c3ccccc3ccc2c2ccccc12
inactive: dose: 25.0 mg/kg/injection, schedule: Q01DX001 (ip), vehicle: saline with Tween-80 100 % of control | dose: 50.0 mg/kg/injection, schedule: Q01DX001 (ip), vehicle: saline with Tween-80 98 % of control | [13] 92 % of control
